Converted amounts (≈) assume the structure as drawn. Residues, ends and D or L forms follow the SMILES beside them.
Assays:
[1] = test system: P. auruginosa LCCE (ceftazidime-resistant strain); test: microbe, parasite or virus in culture
Description: (§1) Minimal inhibitory concentration (MIC) assays were performed as described previously. Briefly, after incubation overnight in Mueller-Hinton (MH) broth at 37°C, the bacteria were grown to exponential growth phase and diluted to approximately 1×10^5 CFU/ml. The peptides were dissolved in 0.2% bovine serum albumin (BSA) containing 0.01% (v/v) acetic acid, and they were then added to each well of a 96-well plates at a final concentration ranging from 0.25 to 128 µM. Each well contained a total volume of 100 µL (50 µL of inoculums and 50 µL of peptide-containing solution). The MICs were determined as the lowest concentration of peptide that prevented visible turbidity by visual inspection after incubation at 37°C for 16–18 h. Independent experiments were carried out at least three times. Uninoculated MH broth was used as a negative control and cultures without added peptides served as the positive control. Minimal bactericidal concentration (MBC) assay was performed following MIC assay. At the end of MIC assay 10 µL aliquots of the medium were taken from peptide-containing wells with no visible bacterial growth. These are plated on MH agar, incubated for 18 h to allow colony growth. The MBC was defined as the lowest peptide concentration resulting in no bacterial growth in the media. Each assay was performed at least three times.
(§2) The antimicrobial activity of the RI16 and mutant peptides against Gram-negative and Gram-positive bacteria were determined.

[2] = test system: P. auruginosa LCCI (ciprofloxacin-resistant strain); test: microbe, parasite or virus in culture
Description: as §1, §2

[3] = test system: P. auruginosa LCGE (gentamincin-resistant strain); test: microbe, parasite or virus in culture
Description: as §1, §2

S. aureus 29213 = test: microbe, parasite or virus in culture; type: cell-based, Staphylococcus aureus
Description: as §1

E. coli 25922 = test: microbe, parasite or virus in culture; type: cell-based, Escherichia coli
Description: as §1

Female KM mice = test: In vivo toxicity; design: species or system Chinese Kun Ming (KM) mice; details: intraperitoneal injection, 3, 6, 30 or 60 mg per kg of body weight, 10/group
Description: The in vivo toxicity of the peptide was also evaluated. Female KM mice (weighing 20 to 25 g) were injected intraperitoneally with 0.1 ml saline and 3, 6, 30, and 60 mg peptide per kg of body weight. The animals (10/group) were directly inspected for adverse effects, such as weight loss, piloerection, motility and mortality for 7 days thereafter. All mice were allowed free water and a maintenance diet in a 12-hour light/dark cycle. All cages contained wood shavings and bedding. The experiment was carried out in strict accordance with the recommendations of the Guide for the Care and Use of Laboratory Animals of Northeast Agricultural University, and the study protocol was approved by Northeast Agricultural University Institutional Animal Care and Use Committee. The mice were monitored for a week and no mice died during the experiment.

S. epidermidis 12228 = test: microbe, parasite or virus in culture; type: cell-based, Staphyfococcus epidermidis
Description: as §1

S. typhimurium 7731 = test: microbe, parasite or virus in culture; type: cell-based, Salmonella typhimurium
Description: as §1

P. auruginosa 21625 = test: microbe, parasite or virus in culture; type: cell-based, Pseudomonas aeruginosa
Description: as §1

P. auruginosa LC = test: microbe, parasite or virus in culture; type: cell-based, Pseudomonas aeruginosa
Description: as §1

P. auruginosa 21630 = test: microbe, parasite or virus in culture; type: cell-based, Pseudomonas aeruginosa
Description: as §1

P. aeruginosa 27853 = test: microbe, parasite or virus in culture; type: cell-based, Pseudomonas aeruginosa
Description: as §1

P. auruginosa 10419 = test: microbe, parasite or virus in culture; type: cell-based, Pseudomonas aeruginosa
Description: as §1

[4] = test system: P. aeruginosa ATCC27853 biofilms; test: Biofilm biomass assay and FE-SEM imaging; type: cell-based, Pseudomonas aeruginosa
Description: A static abiotic solid surface assay was used to analyze biofilm formation as described before, with minor modification. Briefly, overnight cultures of P. aeruginosa ATCC27853 were diluted 1∶100 in fresh medium, added (500 µL) to wells of 12-well culture plates, and grown for 24 h at 37°C. Planktonic cells and loosely attached cells were removed, and wells were then refilled with 500 µL of fresh broth in the absence or presence of different concentrations of peptides. After incubation the biofilms were stained with 0.1% (w/v) crystal violet. Ethanol (95%, v/v) was added to each well, and absorbance was measured at 600 nm. The experiments were done at least three times in duplicate, and the data was expressed as mean ± standard deviations.
For microscopic observation of the biofilm, sterilized coverslips were placed at the bottom of a 12-well plate. After incubation, cells were fixed with 2.5% glutaraldehyde overnight. The samples were then dehydrated through a graded series of ethanol (50%, 70%, 90%, and 100%), followed by critical–point drying, gold sputtering, and examination using an FE-SEM (Hitachi, Japan).

CC[C@H](C)[C@H](NC(=O)[C@H](CCCCN)NC(=O)[C@H](CCCCN)NC(=O)[C@H](CC(C)C)NC(=O)[C@H](CCCNC(=N)N)NC(=O)[C@H](CCCCN)NC(=O)[C@H](CCCNC(=N)N)NC(=O)[C@H](Cc1c[nH]c2ccccc12)NC(=O)[C@H](CCCCN)NC(=O)[C@H](CCCCN)NC(=O)[C@H](CCCNC(=N)N)NC(=O)[C@H](CC(C)C)NC(=O)[C@H](CCCNC(=N)N)NC(=O)[C@H](CCCNC(=N)N)NC(=O)[C@H](Cc1ccccc1)NC(=O)[C@@H](N)CCCNC(=N)N)C(N)=O [T9W] (H-RFRRLRKKWRKRLKKI-NH2)
MIC [1]: 4 µM (≈ 9.07 µg/mL) | MBC ([1]; 18 h): 8 µM (≈ 18.1 µg/mL) | MIC [2]: 2 µM (≈ 4.54 µg/mL) | MBC ([2]; 18 h): 4 µM (≈ 9.07 µg/mL) | MIC [3]: 4 µM (≈ 9.07 µg/mL) | MBC ([3]; 18 h): 8 µM (≈ 18.1 µg/mL) | MIC (S. aureus 29213; 29213): 128 µM (≈ 290 µg/mL) | MBC (S. aureus 29213; 29213, 18 h): >128 µM | MIC (E. coli 25922; 25922): 64 µM (≈ 145 µg/mL) | MBC (E. coli 25922; 25922, 18 h): >128 µM | Signs of toxicity (weight loss, piloerection, motility) (Female KM mice; 7 days, data not shown): no signs of toxicity | Survival (Female KM mice; at least 7 days): all survived | MIC (S. epidermidis 12228; 12228): 64 µM (≈ 145 µg/mL) | MBC (S. epidermidis 12228; 12228, 18 h): >128 µM | MIC (S. typhimurium 7731; 7731): 128 µM (≈ 290 µg/mL) | MBC (S. typhimurium 7731; 7731, 18 h): >128 µM | MIC (P. auruginosa 21625): 4 µM (≈ 9.07 µg/mL) | MBC (P. auruginosa 21625; 18 h): 4 µM (≈ 9.07 µg/mL) | MIC (P. auruginosa LC): 1 µM (≈ 2.27 µg/mL) | MBC (P. auruginosa LC; 18 h): 2 µM (≈ 4.54 µg/mL) | MIC (P. auruginosa 21630): 4 µM (≈ 9.07 µg/mL) | MBC (P. auruginosa 21630; 18 h): 4 µM (≈ 9.07 µg/mL) | MIC (P. aeruginosa 27853; 27853): 2 µM (≈ 4.54 µg/mL) | MBC (P. aeruginosa 27853; 27853, 18 h): 2 µM (≈ 4.54 µg/mL) | MIC (P. auruginosa 10419): 4 µM (≈ 9.07 µg/mL) | MBC (P. auruginosa 10419; 18 h): 4 µM (≈ 9.07 µg/mL)

LL37: the only host defense peptide encoded by the human cathelicidin gene, which eliminates bacteria by targeting membranes (LLGDFFRKSKEKIGKEFKRIVQRIKDFLRNLVPRTES; Antibacterial peptide LL-37; UniProt P49913 134-170, looked up)
Biofilm biomass of pre-formed biofilms ([4]; P. aeruginosa 27853, 24 h treatment, various concentrations, crystal violet, absorbance 600 nm, relative to untreated control, Fig. 6A): reduced | Cell densities in the biofilms (FE-SEM) ([4]; P. aeruginosa 27853 biofilms, peptides at 4×MIC, Fig. 6B): significantly reduced
